This is an account of results in patent US20110269811A1, “INHIBITORS OF SEMICARBAZIDE-SENSITIVE AMINE OXIDASE (SSAO) AND VAP-1 MEDIATED ADHESION USEFUL FOR TREATMENT AND PREVENTION OF DISEASES” (priority 2006, published 2011).

Structures can show the parent of a compound that is named as a salt.

This assay deals with T1, human MAO-B (Homo sapiens, UniProt P27338).
T1 construct: purchased BD Biosciences (MA, USA)
T1 sequence (P27338 1-520): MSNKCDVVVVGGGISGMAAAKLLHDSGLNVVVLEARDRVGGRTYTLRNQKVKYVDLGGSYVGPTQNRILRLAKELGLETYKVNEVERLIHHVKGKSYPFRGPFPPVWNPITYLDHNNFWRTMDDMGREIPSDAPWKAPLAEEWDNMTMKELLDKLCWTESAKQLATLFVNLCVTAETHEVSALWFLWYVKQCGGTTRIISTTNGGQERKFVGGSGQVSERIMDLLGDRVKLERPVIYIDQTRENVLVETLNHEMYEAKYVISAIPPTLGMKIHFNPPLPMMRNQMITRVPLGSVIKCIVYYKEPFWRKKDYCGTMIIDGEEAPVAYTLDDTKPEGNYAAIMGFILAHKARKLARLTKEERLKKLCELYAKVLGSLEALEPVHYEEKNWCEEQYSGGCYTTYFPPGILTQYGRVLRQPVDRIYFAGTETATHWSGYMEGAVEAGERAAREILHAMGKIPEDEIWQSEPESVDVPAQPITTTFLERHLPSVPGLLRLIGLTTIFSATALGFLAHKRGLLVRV
Description: MAO-B activity, colorimetric method, benzylamine substrate. In kind it is biochemical. The conditions noted are these: for Specificity of SSAO on MAO-B: ratio of IC50 for MAO-B to IC50 for SSAO; for IC50: recombinant human MAO-B. The method, then: The specificities of the different SSAO inhibitors was tested by determining their abilities to inhibit MAO-A and MAO-B activities in vitro. Recombinant human MAO-A and human MAO-B enzymes were obtained from BD Biosciences (MA, USA). MAO activity was measured using the colorimetric method essentially as described (Holt, A. et al. (1997) Anal. Biochem. 244: 384). A pre-determined amount of inhibitor diluted in 0.2M potassium phosphate buffer, pH 7.6, was added to each well, if required. […] Controls lacked inhibitor. The following agents were then added to a final reaction volume of 200 μL in 0.2M potassium phosphate buffer, pH 7.6: 0.04 mg/ml of MAO-A or 0.07 mg/ml MAO-B enzyme, 15 μL of 10 mM tyramine substrate (for MAO-A), or 15 μL 100 mM benzylamine substrate (for MAO-B), and 50 μL of freshly made chromogenic solution. The chromogenic solution contained 750 μM vanillic acid (Sigma#V-2250), 400 μM 4-aminoantipyrine (Sigma #A-4328) and 12 U/mL horseradish peroxidase (Sigma #P-8250) in order to cause a change of 0.5 OD A490 nm/h. […] The plates were incubated for 60 min at 37° C. The increase in absorbance, reflecting MAO activity, was measured at 490 nm using microplate spectrophotometer (Power Wave 40, Bio-Tek Inst.). Inhibition was presented as percent inhibition compared to control after correcting for background absorbance and IC50 values calculated using GraphPad Prism software. Clorgyline and pargyline (inhibitors of MAO-A and -B, respectively) at 1 μM, were added to some wells as positive controls for MAO inhibition.

By IC50 is commonly meant the concentration at which inhibition is half-maximal. In the case of `Cl.NC/C(=C\F)Cc1ccc(Cl)cc1` [Compound I-3-Z, (Z)-2-(4-Chlorobenzyl)-3-fluoro-allylamine hydrochloride], the “Specificity of SSAO on MAO-B” value was determined as 3 and the IC50 amounted to 0.084 µM.
For `COc1cccc(C/C(=C/F)CN)c1.Cl` [Compound I-5-Z, (Z)-3-Fluoro-2-(3-methoxybenzyl)allylamine hydrochloride], the “Specificity of SSAO on MAO-B” value is 64.3 and the IC50 came out at 1.8 µM.
The matching figures for `CC(C)Oc1ccc(C/C(=C\F)CN)cc1` [Compound I-8-E, (E)-3-Fluoro-2-(4-isopropoxybenzyl)allylamine hydrochloride]: 3070 and 35 µM.
Regarding `CC(C)Oc1ccc(C/C(=C/F)CN)cc1.Cl` [Compound I-8-Z, (Z)-3-Fluoro-2-(4-isopropoxybenzyl)allylamine hydrochloride], the “Specificity of SSAO on MAO-B” value turned out to be 5400 and the IC50 came to 27 µM.
With `CSc1ccc(C/C(=C/F)CN)cc1.Cl` [Compound I-9-Z, (Z)-3-Fluoro-2-(4-methylthiobenzyl)allylamine hydrochloride], the “Specificity of SSAO on MAO-B” value came to 200 and the IC50 is 2.4 µM.
Regarding `CC(C)c1ccc(C/C(=C\F)CN)cc1.Cl` [Compound I-14-E, (E)-3-Fluoro-2-(4-isopropylbenzyl)allylamine hydrochloride], the “Specificity of SSAO on MAO-B” value amounted to 2.54 and the IC50 is 0.033 µM.
For `CC(C)c1ccc(C/C(=C/F)CN)cc1.Cl` [Compound I-14-Z, (Z)-3-Fluoro-2-(4-isopropylbenzyl)allylamine hydrochloride], the “Specificity of SSAO on MAO-B” value is 1250 and the IC50 came to 9.6 µM.
Consider `CC(C)(C)c1ccc(C/C(=C/F)CN)cc1.Cl` [Compound I-15-Z, (Z)-3-Fluoro-2-(4-tert-butylbenzyl)allylamine hydrochloride], for which the “Specificity of SSAO on MAO-B” value was found to be 5429 and the IC50 stood at 38 µM.
Consider `Cl.NC/C(=C\F)Cc1cccc(F)c1` [Compound I-19-Z, (Z)-3-Fluoro-2-(3-fluorobenzyl)allylamine hydrochloride], for which the “Specificity of SSAO on MAO-B” value was found to be 27.6 and the IC50 was found to be 0.69 µM.
For `NC/C(=C\Cl)CCc1cc(F)cc(C(F)(F)F)c1.O=C(O)C(F)(F)F` [Compound I-40-Z, (Z)-3-Chloro-2-(3-fluoro-5-trifluoromethylphenylethyl)allylamine trifluoroacetate], the “Specificity of SSAO on MAO-B” value amounted to 185 and the IC50 stood at 170 µM.
Regarding `COc1ccc(CC/C(=C\Cl)CN)cc1.Cl` [Compound I-44-Z, (E)-3-Chloro-2-(4-methoxyphenylethyl)allylamine hydrochloride], the “Specificity of SSAO on MAO-B” value stood at 22 and the IC50 worked out at 16 µM.
The matching figures for `CCOc1ccc(CC/C(=C\Cl)CN)cc1.Cl` [Compound I-45-Z, (E)-3-Chloro-2-(4-ethoxyphenylethyl)allylamine hydrochloride]: 8.6 and 1.2 µM.
As to `CCCCOc1ccc(CC/C(=C\Cl)CN)cc1.Cl` [Compound I-47-E, (E)-3-Chloro-2-(4-n-butoxyphenylethyl)allylamine hydrochloride], the “Specificity of SSAO on MAO-B” value worked out at 2.5 and the IC50 was 0.42 µM.
Consider `NC/C(=C\F)CCc1ccc(F)cc1` [Compound I-99-Z, (Z)-2-(fluoromethylene)-4-(4-fluorophenyl)butan-1-amine], for which the “Specificity of SSAO on MAO-B” value came out at 2.1 and the IC50 is 0.27 µM.
The like results for `COc1ccc(CC/C(=C/F)CN)cc1.Cl` [Compound I-102-Z, (Z)-3-Fluoro-2-[2-(4-methoxyphenyl)-ethyl]-allylamine hydrochloride] were, in that order, 19 and 0.56 µM.
With `NC/C(=C\F)CCc1cc(F)cc(C(F)(F)F)c1.O=C(O)C(F)(F)F` [Compound I-109-Z, (Z)-3-Fluoro-2-(3-fluoro-5-trifluoromethylphenylethyl)allylamine trifluoroacetate], the “Specificity of SSAO on MAO-B” value is listed as 5.9 and the IC50 was determined as 1.6 µM.
For the compound `Cl.NC/C(F)=C\Cc1ccc(F)cc1` [II-5-E, (E)-2-Fluoro-4-(4-fluorophenyl)-2-butenylamine hydrochloride], the “Specificity of SSAO on MAO-B” value was more than 3333 and the IC50 was more than 1000 µM.
Turning to `Cc1cccc(C/C=C(/F)CN)c1.Cl` [II-6-E, (E)-2-Fluoro-4-(3-methylphenyl)-2-butenylamine hydrochloride], the “Specificity of SSAO on MAO-B” value was 7692.
The same measure, in the same setting: then `Cl.NC/C(F)=C\Cc1cccc(F)c1` [II-7-E, (E)-2-Fluoro-4-(3-fluorophenyl)-2-butenylamine hydrochloride], with 4545.
Take `COc1cccc(C/C=C(/F)CN)c1.Cl` [II-8-E, (E)-2-Fluoro-4-(3-methoxyphenyl)-2-butenylamine hydrochloride]: the “Specificity of SSAO on MAO-B” value amounted to 50000 and the IC50 stood at 1100 µM.
The matching figures for `Cl.NC/C(F)=C\Cc1ccccc1` [II-9-E, (E)-2-Fluoro-4-phenyl-2-butenylamine hydrochloride]: 12120 and 1200 µM.
The like results for `Cl.NC/C(F)=C\Cc1cccc(OC(F)(F)F)c1` [II-10-E, (E)-2-Fluoro-4-(3-trifluoromethoxyphenyl)-2-butenylamine hydrochloride] were, in that order, 53670 and 966 µM.
For the compound `CN(C)c1cccc(C/C=C(/F)CN)c1.Cl` [II-11-E, (E)-2-Fluoro-4-(3-dimethylaminophenyl)-2-butenylamine hydrochloride], the “Specificity of SSAO on MAO-B” value came out at 7272.
Consider `CSc1cccc(C/C=C(/F)CN)c1.Cl` [II-13-E, (E)-2-Fluoro-4-(3-methylthiophenyl)-2-butenylamine hydrochloride], for which the “Specificity of SSAO on MAO-B” value was found to be 100000.
Take `CS(=O)(=O)c1cccc(C/C=C(/F)CN)c1.Cl` [II-14-E, (E)-2-Fluoro-4-(3-methanesulfonylphenyl)-2-butenylamine hydrochloride]: the “Specificity of SSAO on MAO-B” value is listed as 14286.
As to `Cl.NC/C(F)=C\Cc1cccc(SC(F)(F)F)c1` [II-15-E, (E)-2-Fluoro-4-(3-trifluoromethylthiophenyl)-2-butenylamine hydrochloride], the “Specificity of SSAO on MAO-B” value was more than 34780 and the IC50 is more than 800 µM.
Consider `COc1cccc(C/C(C)=C(/F)CN)c1` [II-18-E, hydrochloride], for which the “Specificity of SSAO on MAO-B” value was more than 3448 and the IC50 was more than 1000 µM.
As for `COc1cccc(OC/C=C(/F)CN)c1` [II-19-E, (E)-2-fluoro-4-(3-methoxyphenoxy)but-2-en-1-amine], the “Specificity of SSAO on MAO-B” value worked out at 5312 and the IC50 turned out to be 850 µM.
